Reference: patent publication US20210045385A1, “PYRIDAZINONE-SUBSTITUTED KETOXIMES AS HERBICIDES” (FMC Corporation, priority 2018, published 2021)

Tests used:
Format in all cases: in vivo
rice (Oryza sativa) = experiment: Test B flooded paddy test, visual plant response rating; conditions: 250 g ai/ha, Flood, applied to paddy water, 2-leaf stage, evaluated after 13 to 15 days
In short: (§1)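 2-leaf plants; pots flooded 3 cm over soil surface; compound dosed straight into the floodwater; depth kept constant; greenhouse 13–15 d; visual rating vs. untreated controls.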

[1] = tested on: barnyardgrass (Echinochloa crus-galli); experiment: as above; conditions: 250 g ai/ha, Flood, applied to paddy water, 2-leaf stage, evaluated after 13 to 15 days
In short: as §1

[2] = tested on: ducksalad (Heteranhera limosa); experiment: as above; conditions: 250 g ai/ha, Flood, applied to paddy water, 2-leaf stage, evaluated after 13 to 15 days
In short: as §1

[3] = tested on: sedge, umbrella (small-flower umbrella sedge, Cyperus difformis); experiment: as above; conditions: 250 g ai/ha, Flood, applied to paddy water, 2-leaf stage, evaluated after 13 to 15 days
In short: as §1

[4] = tested on: pigweed (Amaranthus retroflexus); experiment: Test A preemergence, visual plant response rating; conditions: for Pigweed plant response rating: 125 g ai/ha, preemergence, 0 to 100 scale, 0 no effect, 100 complete control; for Pigweed plant response rating (0 to 100 scale): approx. 10 days
In short: (§2)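 Greenhouse evaluation, approx. 10 days post-spray. Soil: loam + sand. Postemergence stage: 1–2 leaves, height 2–10 cm. Vehicle: non-phytotoxic solvent blend with surfactant. Score: visual injury on a 0 (no effect) to 100 (complete control) scale.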

[5] = tested on: barnyardgrass (Echinochloa crus-galli); experiment: Test A preemergence, visual plant response rating; conditions: for Barnyardgrass plant response rating: 125 g ai/ha, preemergence, 0 to 100 scale, 0 no effect, 100 complete control; for Barnyardgrass plant response rating (0 to 100 scale): approx. 10 days
In short: as §2

[6] = tested on: foxtail, giant (giant foxtail, Setaria faberii); experiment: Test A preemergence, visual plant response rating; conditions: for Foxtail, Giant plant response rating: 125 g ai/ha, preemergence, 0 to 100 scale, 0 no effect, 100 complete control; for Foxtail, Giant plant response rating (0 to 100 scale): approx. 10 days
In short: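 Compared with untreated controls, treated plants received a visual injury score on a 0–100 scale around 10 days after application. The compound, in a non-phytotoxic solvent with surfactant, was given as a preemergence soil spray or postemergence at the one- to two-leaf stage.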

[7] = tested on: Italian ryegrass (Lolium multiflorum); experiment: Test A preemergence, visual plant response rating; conditions: for Ryegrass, Italian plant response rating: 125 g ai/ha, preemergence, 0 to 100 scale, 0 no effect, 100 complete control; for Ryegrass, Italian plant response rating (0 to 100 scale): approx. 10 days
In short: as §2

[8] = tested on: ragweed (common ragweed, Ambrosia elatior); experiment: Test A preemergence, visual plant response rating; conditions: for Ragweed plant response rating: 125 g ai/ha, preemergence, 0 to 100 scale, 0 no effect, 100 complete control; for Ragweed plant response rating (0 to 100 scale): approx. 10 days
In short: as §2

kochia (Kochia scoparia) [9] = experiment: Test A preemergence, visual plant response rating; conditions: for Kochia plant response rating: 125 g ai/ha, preemergence, 0 to 100 scale, 0 no effect, 100 complete control; for Kochia plant response rating (0 to 100 scale): approx. 10 days
In short: as §2

[10] = tested on: pigweed (Amaranthus retroflexus); experiment: Test A postemergence, visual plant response rating; conditions: for Pigweed plant response rating (0 to 100 scale): 500 g ai/ha, postemergence, 0 is no effect, 100 is complete control; for Pigweed plant response rating: Postemergence, 125 g ai/ha, 0 to 100 scale (0 no effect, 100 complete control)
In short: as §2

[11] = tested on: galium (catchweed bedstraw, Galium aparine); experiment: Test A postemergence, visual plant response rating; conditions: for Galium plant response rating (0 to 100 scale): 500 g ai/ha, postemergence, 0 is no effect, 100 is complete control; for Galium plant response rating: Postemergence, 125 g ai/ha, 0 to 100 scale (0 no effect, 100 complete control)
In short: as §2

[12] = tested on: barnyardgrass (Echinochloa crus-galli); experiment: Test A postemergence, visual plant response rating; conditions: for Barnyardgrass plant response rating (0 to 100 scale): 500 g ai/ha, postemergence, 0 is no effect, 100 is complete control; for Barnyardgrass plant response rating: Postemergence, 125 g ai/ha, 0 to 100 scale (0 no effect, 100 complete control)
In short: as §2

[13] = tested on: foxtail, giant (giant foxtail, Setaria faberii); experiment: Test A postemergence, visual plant response rating; conditions: for Foxtail, Giant plant response rating (0 to 100 scale): 500 g ai/ha, postemergence, 0 is no effect, 100 is complete control; for Foxtail, Giant plant response rating: Postemergence, 125 g ai/ha, 0 to 100 scale (0 no effect, 100 complete control)
In short: as §2

[14] = tested on: wheat (Triticum aestivum); experiment: Test A postemergence, visual plant response rating; conditions: for Wheat plant response rating (0 to 100 scale): 500 g ai/ha, postemergence, 0 is no effect, 100 is complete control; for Wheat plant response rating: Postemergence, 125 g ai/ha, 0 to 100 scale (0 no effect, 100 complete control)
In short: as §2

[15] = tested on: Italian ryegrass (Lolium multiflorum); experiment: Test A postemergence, visual plant response rating; conditions: for Ryegrass, Italian plant response rating (0 to 100 scale): 500 g ai/ha, postemergence, 0 is no effect, 100 is complete control; for Ryegrass, Italian plant response rating: Postemergence, 125 g ai/ha, 0 to 100 scale (0 no effect, 100 complete control)
In short: as §2

[16] = tested on: ragweed (common ragweed, Ambrosia elatior); experiment: Test A postemergence, visual plant response rating; conditions: for Ragweed plant response rating (0 to 100 scale): 500 g ai/ha, postemergence, 0 is no effect, 100 is complete control; for Ragweed plant response rating: Postemergence, 125 g ai/ha, 0 to 100 scale (0 no effect, 100 complete control)
In short: as §2

corn (Zea mays) = experiment: Test A postemergence, visual plant response rating; conditions: for Corn plant response rating (0 to 100 scale): 500 g ai/ha, postemergence, 0 is no effect, 100 is complete control; for Corn plant response rating: Postemergence, 125 g ai/ha, 0 to 100 scale (0 no effect, 100 complete control)
In short: as §2

[17] = tested on: blackgrass (Alopecurus myosuroides); experiment: Test A postemergence, visual plant response rating; conditions: for Blackgrass plant response rating (0 to 100 scale): 500 g ai/ha, postemergence, 0 is no effect, 100 is complete control; for Blackgrass plant response rating: Postemergence, 125 g ai/ha, 0 to 100 scale (0 no effect, 100 complete control)
In short: as §2

kochia (Kochia scoparia) [18] = experiment: Test A postemergence, visual plant response rating; conditions: for Kochia plant response rating (0 to 100 scale): 500 g ai/ha, postemergence, 0 is no effect, 100 is complete control; for Kochia plant response rating: Postemergence, 125 g ai/ha, 0 to 100 scale (0 no effect, 100 complete control)
In short: as §2

Row | Structure (SMILES) | Plant response rating, Rice (0 to 100 scale, 0 is no effect, 100 is complete control) (rice (Oryza sativa)) | Plant response rating, Barnyardgrass (0 to 100 scale, 0 is no effect, 100 is complete control) [1] | Plant response rating, Ducksalad (0 to 100 scale, 0 is no effect, 100 is complete control) [2] | Plant response rating, Sedge, Umbrella (0 to 100 scale, 0 is no effect, 100 is complete control) [3] | Pigweed plant response rating (0 to 100 scale) ([4]; 500 g ai/ha Preemergence) | Barnyardgrass plant response rating (0 to 100 scale) ([5]; 500 g ai/ha Preemergence) | Foxtail, Giant plant response rating (0 to 100 scale) ([6]; 500 g ai/ha Preemergence) | Ryegrass, Italian plant response rating (0 to 100 scale) ([7]; 500 g ai/ha Preemergence) | Ragweed plant response rating (0 to 100 scale) ([8]; 500 g ai/ha Preemergence) | Kochia plant response rating (0 to 100 scale) (kochia (Kochia scoparia) [9]; 500 g ai/ha Preemergence) | Pigweed plant response rating (0 to 100 scale) [10] | Pigweed plant response rating [10] | Galium plant response rating (0 to 100 scale) [11] | Galium plant response rating [11] | Barnyardgrass plant response rating (0 to 100 scale) [12] | Barnyardgrass plant response rating [12] | Foxtail, Giant plant response rating (0 to 100 scale) [13] | Foxtail, Giant plant response rating [13] | Wheat plant response rating (0 to 100 scale) [14] | Wheat plant response rating [14] | also measured
1 | CCCc1ccccc1/C(=N\OC)c1c(O)c(C)nn(C)c1=O [Compound 92] | 0 | 0 | 0 | 0 | 90 | 60 | 80 | 80 | 30 | 10 | 80 | 60 | 70 | 70 | 40 | 20 | 60 | 50 | 0 | 0 | Pigweed plant response rating [4]: 30; Barnyardgrass plant response rating [5]: 30; Foxtail, Giant plant response rating [6]: 70; Ryegrass, Italian plant response rating [7]: 40; Ragweed plant response rating [8]: 20; Kochia plant response rating (kochia (Kochia scoparia) [9]): 0; Ryegrass, Italian plant response rating (0 to 100 scale) [15]: 60; Ryegrass, Italian plant response rating [15]: 50; Ragweed plant response rating (0 to 100 scale) [16]: 70; Ragweed plant response rating [16]: 60; Corn plant response rating (0 to 100 scale) (corn (Zea mays)): 10; Corn plant response rating (corn (Zea mays)): 0; Blackgrass plant response rating (0 to 100 scale) [17]: 70; Blackgrass plant response rating [17]: 20; Kochia plant response rating (0 to 100 scale) (kochia (Kochia scoparia) [18]): 60; Kochia plant response rating (kochia (Kochia scoparia) [18]): 30
2 | C=CCn1nc(C)c(O)c(C(=NOC)c2cccc(Cl)c2)c1=O (mixture of isomers) [Compound 5] | 0 | 0 | 0 | 0 | 0 | 70 | 10 | 20 | 0 | 0 | 0 | 0 | 0 | 0 | 30 | 10 | 10 | 0 | 0 | 0 | Pigweed plant response rating (0 to 100 scale) ([4]; 125 g ai/ha Preemergence): 0; Barnyardgrass plant response rating (0 to 100 scale) ([5]; 125 g ai/ha Preemergence): 20; Foxtail, Giant plant response rating (0 to 100 scale) ([6]; 125 g ai/ha Preemergence): 0; Ryegrass, Italian plant response rating (0 to 100 scale) ([7]; 125 g ai/ha Preemergence): 0; Ragweed plant response rating (0 to 100 scale) ([8]; 125 g ai/ha Preemergence): 0; Kochia plant response rating (0 to 100 scale) (kochia (Kochia scoparia) [9]; 125 g ai/ha Preemergence): 0; Ryegrass, Italian plant response rating (0 to 100 scale) [15]: 30; Ryegrass, Italian plant response rating [15]: 0; Ragweed plant response rating (0 to 100 scale) [16]: 0; Ragweed plant response rating [16]: 0; Corn plant response rating (0 to 100 scale) (corn (Zea mays)): 0; Corn plant response rating (corn (Zea mays)): 0; Blackgrass plant response rating (0 to 100 scale) [17]: 50; Blackgrass plant response rating [17]: 10; Kochia plant response rating (0 to 100 scale) (kochia (Kochia scoparia) [18]): 0; Kochia plant response rating (kochia (Kochia scoparia) [18]): 0
3 | CO/N=C(\c1ccc(C)o1)c1c(O)c(C)nn(C)c1=O [Compound 53] | 0 | 0 | 0 | 0 | 0 | 0 | 0 | 0 | 0 | 0 | 0 | 0 | 0 | 0 | 70 | 10 | 90 | 10 | 0 | 0 | Pigweed plant response rating [4]: 0; Barnyardgrass plant response rating [5]: 0; Foxtail, Giant plant response rating [6]: 0; Ryegrass, Italian plant response rating [7]: 0; Ragweed plant response rating [8]: 0; Kochia plant response rating (kochia (Kochia scoparia) [9]): 0; Ryegrass, Italian plant response rating (0 to 100 scale) [15]: 90; Ryegrass, Italian plant response rating [15]: 20; Ragweed plant response rating (0 to 100 scale) [16]: 0; Ragweed plant response rating [16]: 0; Corn plant response rating (0 to 100 scale) (corn (Zea mays)): 30; Corn plant response rating (corn (Zea mays)): 0; Blackgrass plant response rating (0 to 100 scale) [17]: 40; Blackgrass plant response rating [17]: 10; Kochia plant response rating (0 to 100 scale) (kochia (Kochia scoparia) [18]): 0; Kochia plant response rating (kochia (Kochia scoparia) [18]): 0
